Laboratory results published in patent US10100010B1, “4-methoxy pyrrole derivatives or salts thereof and pharmaceutical composition comprising the same” (Daewoong Pharmaceutical Co., Ltd., priority 2015, dated 2018).
Structures can show the parent of a compound that is named as a salt. Where two headings read alike, the source gives them in different places.

Columns and labels:
M2 = target: T1, M2 (Homo sapiens, UniProt P08172); experiment: GPCR Calcium Flux assay (FLIPR tetra, Eurofins), M2; assay type: cell-based; conditions: for IC50: 8 concentrations 10 to 0.0006 uM, read-out: 50% inhibitory concentration (IC50) M2; for inhibition at 10 µM: single concentration of 10 uM, read-out: inhibition rate (%) M2
T1 sequence (P08172 1-466): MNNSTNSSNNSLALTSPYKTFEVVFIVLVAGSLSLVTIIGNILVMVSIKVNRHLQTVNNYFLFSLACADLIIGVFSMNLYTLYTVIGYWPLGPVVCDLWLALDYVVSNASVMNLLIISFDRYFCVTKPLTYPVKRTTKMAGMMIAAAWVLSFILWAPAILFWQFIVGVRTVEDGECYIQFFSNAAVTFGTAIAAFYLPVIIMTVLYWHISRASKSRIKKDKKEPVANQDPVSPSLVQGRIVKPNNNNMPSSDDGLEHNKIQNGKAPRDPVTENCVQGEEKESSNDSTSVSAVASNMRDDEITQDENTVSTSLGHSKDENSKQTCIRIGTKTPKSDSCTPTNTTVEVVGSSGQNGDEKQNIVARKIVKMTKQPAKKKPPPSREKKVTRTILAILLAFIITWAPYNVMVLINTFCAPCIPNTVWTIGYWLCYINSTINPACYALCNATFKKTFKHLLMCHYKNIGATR
Protocol: (§1) In order to confirm whether the compounds prepared in the above Examples act as an agonist or antagonist against GPCR Target, Calcium Flux assay was performed in an assay plate in which the compounds prepared in the Examples, vehicle controls, and reference compounds were added, using a Fluorometric imaging plate reader (FLIPR tetra) equipment.
(§2) Calcium Flux assay was evaluated by entrusting the GPCR profiler assay in Safety panel assays with Eurofins. By using the Fluo-8AM calcium dye, excitation was measured at a wavelength in the range of 470 to 495 nm and Emission was measured at a wavelength in the range of 515-575 nm. GPCR Assay Buffer for Calcium Flux assay was prepared by adding 20 mM of HEPES and 2.5 mM of Probenecid to Hanks Balanced Salt Solution (HBSS) to have pH 7.4. The Compounds of Examples for evaluation of the GPCR were diluted with DMSO at a concentration of 10 mM to make a stock and then prepared by diluting in the GPCR Assay Buffer at the concentration equivalent to three times the final concentration. First, for the evaluation of GPCRs, the inhibitory activity of the compounds of the Examples was evaluated at a single concentration of 10 uM, and then the respective selected targets were four fold-diluted from 10 uM to the low side to calculate 50% inhibitory concentration (IC50), prepared at the total 8 concentrations of 10, 2.5, 0.62, 0.15, 0.04, 0.01, 0.0024, 0.0006 uM, and Calcium Flux assay for GPCR was conducted. In order to evaluate the agonist and antagonist, % inhibition rate against GPCR activity before and after treatment of the compounds and the inhibitory activity of the compounds of the Examples were determined.
(§3) As a result, when the efficacy of […] and acetylcholine of the compounds prepared in the Examples was 100%, the inhibition rate (%) at a single concentration of 10 uM was evaluated and shown in Table 8.

M1 = target: T2, M1 (Homo sapiens, UniProt P11229); experiment: GPCR Calcium Flux assay (FLIPR tetra, Eurofins), M1; assay type: cell-based; conditions: for IC50: 8 concentrations 10 to 0.0006 uM, read-out: 50% inhibitory concentration (IC50) M1; for inhibition at 10 µM: single concentration of 10 uM, read-out: inhibition rate (%) M1
T2 sequence (P11229 1-460): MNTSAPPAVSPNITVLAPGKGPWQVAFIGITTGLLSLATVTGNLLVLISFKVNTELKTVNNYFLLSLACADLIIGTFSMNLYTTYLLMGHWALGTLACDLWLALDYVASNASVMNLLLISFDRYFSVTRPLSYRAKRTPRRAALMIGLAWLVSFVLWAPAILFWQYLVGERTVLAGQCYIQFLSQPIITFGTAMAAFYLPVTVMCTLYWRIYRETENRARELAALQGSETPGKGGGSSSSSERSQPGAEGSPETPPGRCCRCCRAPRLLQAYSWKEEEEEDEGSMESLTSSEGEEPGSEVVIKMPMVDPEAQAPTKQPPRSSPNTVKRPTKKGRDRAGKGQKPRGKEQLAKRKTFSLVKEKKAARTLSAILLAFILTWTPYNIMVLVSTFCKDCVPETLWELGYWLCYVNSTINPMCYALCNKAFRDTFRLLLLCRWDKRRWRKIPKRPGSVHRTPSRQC
Protocol: as §1, §2, §3

[1] = target: T3, proton pump (H+/K+-ATPase) (Sus scrofa, UniProt P19156); experiment: Inhibitory effects on proton pump (H+/K+-ATPase) activity, gastric vesicles, malachite green Pi detection; assay type: biochemical; conditions: hog gastric vesicles, 37° C. 40 minutes, pH 7.4
T3 construct: Gastric vesicles were prepared from a hog stomach; from tissue; host or cells: hog stomach (gastric vesicles, method of Rabon et al. 1988)
Protocol: The inhibitory effects on proton pump (H^+/K^+-ATPase) activity of the compounds prepared in Examples 2, 8 and 22 were measured as follows.
Gastric vesicles were prepared from a hog stomach in accordance with the known method (Edd C. Rabon et al., Preparation of Gastric H^+, K^+-ATPase., Methods in enzymology, vol. 157 Academic Press Inc., (1988), pp. 649-654). The protein contents of gastric vesicles thus prepared were quantitatively measured with Bicinchoninic Acid (BCA) kit (Thermo Co.).
80 ul of (a predetermined concentration of a test compound, 0.5% DMSO, 2.5 mM MgCl2, 12.5 mM KCl, 1.25 mM EDTA, 60 mM Tris-HCl, pH7.4) was added to each well of 96-well plate. 10 ul of the reaction solution containing gastric vesicles (60 mmol/l, Tris-HCl buffer solution, pH 7.4), and 10 ul of Tris buffer solution containing adenosine triphosphate (10 mM ATP, Tris-HCl buffer solution, pH 7.4) were added to each well and subjected to enzymatic reaction at 37° C. for 40 minutes. […] The amount of monophosphate (Pi) in the reaction solution was measured at 570 nm by using a microplate reader (FLUOstar Omega, BMG Co.). The inhibition rate (%) was measured from the activity value of the control group and the activity value of the test compound at various concentrations, and the concentration (IC50) that inhibits H^+/K^+-ATPase activity by 50% was calculated from each % inhibition value of the compounds using Logistic 4-parameter function of Sigmaplot8.0 program.

5-HT2A = 5-HT2A (Homo sapiens, UniProt P28223); experiment: GPCR Calcium Flux assay (FLIPR tetra, Eurofins), 5-HT2A; assay type: cell-based; conditions: for IC50: 8 concentrations 10 to 0.0006 uM, read-out: 50% inhibitory concentration (IC50) 5-HT2A; for inhibition at 10 µM: read-out: inhibition rate (%) 5-HT2A
Protocol: as §1, §2, §3

T3 sequence (P19156 2-1034 limits assumed): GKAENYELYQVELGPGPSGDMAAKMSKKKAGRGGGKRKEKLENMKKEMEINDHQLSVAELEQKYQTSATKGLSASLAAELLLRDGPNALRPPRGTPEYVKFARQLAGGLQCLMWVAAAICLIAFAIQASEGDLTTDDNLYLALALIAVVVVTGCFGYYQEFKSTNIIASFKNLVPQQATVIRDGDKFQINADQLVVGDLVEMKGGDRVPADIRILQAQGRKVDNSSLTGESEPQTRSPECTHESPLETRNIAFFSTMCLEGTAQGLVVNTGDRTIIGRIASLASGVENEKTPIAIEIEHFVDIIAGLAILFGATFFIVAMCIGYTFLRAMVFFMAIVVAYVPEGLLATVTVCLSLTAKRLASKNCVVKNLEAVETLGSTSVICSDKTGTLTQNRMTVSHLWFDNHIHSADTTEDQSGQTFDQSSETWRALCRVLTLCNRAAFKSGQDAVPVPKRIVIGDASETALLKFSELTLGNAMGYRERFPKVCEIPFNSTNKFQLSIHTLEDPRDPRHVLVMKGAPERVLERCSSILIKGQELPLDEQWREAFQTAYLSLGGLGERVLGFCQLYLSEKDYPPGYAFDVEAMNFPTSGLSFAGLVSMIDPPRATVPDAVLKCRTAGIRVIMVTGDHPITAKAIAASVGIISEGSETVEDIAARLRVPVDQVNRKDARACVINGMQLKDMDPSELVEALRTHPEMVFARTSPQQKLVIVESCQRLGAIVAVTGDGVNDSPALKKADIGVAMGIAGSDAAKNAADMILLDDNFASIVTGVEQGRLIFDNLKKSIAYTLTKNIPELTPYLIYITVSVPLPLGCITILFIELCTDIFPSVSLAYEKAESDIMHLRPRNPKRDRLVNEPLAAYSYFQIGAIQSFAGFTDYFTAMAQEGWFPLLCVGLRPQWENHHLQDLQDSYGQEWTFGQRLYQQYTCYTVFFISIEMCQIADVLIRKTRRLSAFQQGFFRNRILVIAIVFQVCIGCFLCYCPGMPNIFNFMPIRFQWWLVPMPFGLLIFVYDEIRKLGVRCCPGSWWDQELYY
T3 sequence (P18434 whole entry partner): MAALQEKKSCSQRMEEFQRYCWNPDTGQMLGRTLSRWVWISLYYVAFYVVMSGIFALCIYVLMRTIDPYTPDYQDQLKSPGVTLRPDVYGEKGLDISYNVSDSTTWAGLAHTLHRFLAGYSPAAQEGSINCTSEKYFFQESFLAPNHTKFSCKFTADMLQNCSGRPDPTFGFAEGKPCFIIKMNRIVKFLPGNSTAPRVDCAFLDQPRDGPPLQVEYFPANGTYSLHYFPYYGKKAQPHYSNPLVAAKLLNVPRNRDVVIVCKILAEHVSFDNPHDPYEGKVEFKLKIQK
5-HT2A, sequence (P28223 whole entry): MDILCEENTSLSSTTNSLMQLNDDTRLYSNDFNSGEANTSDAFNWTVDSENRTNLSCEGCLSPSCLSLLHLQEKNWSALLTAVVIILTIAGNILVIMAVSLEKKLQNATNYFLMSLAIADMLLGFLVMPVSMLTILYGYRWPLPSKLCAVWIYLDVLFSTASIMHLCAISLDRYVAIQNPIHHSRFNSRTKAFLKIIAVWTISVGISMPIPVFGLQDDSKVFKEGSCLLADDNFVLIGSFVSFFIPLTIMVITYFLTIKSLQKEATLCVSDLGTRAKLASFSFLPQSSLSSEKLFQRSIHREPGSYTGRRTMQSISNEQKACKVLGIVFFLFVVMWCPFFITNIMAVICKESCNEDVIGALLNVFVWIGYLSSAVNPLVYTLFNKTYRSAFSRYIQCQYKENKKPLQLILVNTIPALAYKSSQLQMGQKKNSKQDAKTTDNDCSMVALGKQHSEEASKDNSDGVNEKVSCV

Structure (SMILES) | IC50 (M2) [nM] | inhibition at 10 µM (M2) [%] | IC50 (M1) [nM] | inhibition at 10 µM (M1) [%] | IC50 [1] [nM] | IC50 (5-HT2A) [nM] | inhibition at 10 µM (5-HT2A; single concentration of 10 uM) [%] | inhibition at 10 µM (5-HT2A) [%]
CNCc1cn(S(=O)(=O)c2cccc(F)c2)c(-c2ccc(F)cc2F)c1OC.Cl [Example 8, 1-(5-(2,4-difluorophenyl)-1-((3-fluorophenyl)sulfonyl)-4-methoxy-1H-pyrrol-3-yl)-N-methylmethanamine hydrochloride] | 650 | 101 | 140 | 101 | 24 | 110 | 102 | –
CNCc1cn(S(=O)(=O)c2cccc(C(F)(F)F)c2)c(-c2ccccc2F)c1OC [Example 2, hydrochloride] | – | -4.7 | – | 92.7 | 15 | – | – | 39.5
CNCc1cn(S(=O)(=O)c2cccc(F)c2)c(-c2c(F)cc(F)cc2F)c1OC.Cl [Example 22, 1-(1-((3-fluorophenyl)sulfonyl)-4-methoxy-5-(2,4,6-trifluorophenyl)-1H-pyrrol-3-yl)-N-methylmethanamine hydrochloride] | 1000 | 100 | 370 | 98 | 14 | 33 | 102 | –
